In patent publication US20050075375A1 (priority 2003, published 2005):
Read-outs that look alike come from different tables or passages of the source.

System: monocistronic NK5.1 HCV replicon in Huh7 cells
Test: HCV replicon assay, monocistronic replicon cell line
Assay type: cell-based, hepatitis C virus
Settings: Hepatitis C virus, Huh-7, 72 h, read-out: Mono EC50 Median
Procedure, shortened: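 Huh7 cells carrying the monocistronic NK5.1 replicon, seeded 24 h before dosing, were exposed to six-point half-log compound series (0.6% DMSO) for 3 days at 37 °C. Replicon RNA was quantified by TaqMan RT-PCR, normalised to GAPDH and compared with DMSO controls to derive EC50.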

[1] = Table 1, monocistronic replicon in Huh7 cells, 3 days incubation, HCV RNA/GAPDH RNA by TaqMan RT-PCR

| Structure (SMILES) | EC50 [1] | EC50 |
| --- | --- | --- |
| COc1ccc(O)c(-c2cc(-c3ccccn3)on2)c1 [Compound 125, 4-Methoxy-2-(5-pyridin-2-yl-isoxazol-3-yl)-phenol] | 11 µM |  |
| Oc1c(Cl)cc(Cl)cc1-c1cc(-c2ccccn2)on1 [Compound 127, 2,4-Dichloro-6-(5-pyridin-2-yl-isoxazol-3-yl)-phenol] | 7.4 µM |  |
| Oc1ccc(Br)cc1-c1cc(-c2ncccc2C(F)(F)F)on1 [Compound 128, 4-Bromo-2-[5-(3-trifluoromethyl-pyridin-2-yl)-isoxazol-3-yl]-phenol] | > 32 µM |  |
| COc1ccc(O)c(-c2cc(-c3ncccc3C(F)(F)F)on2)c1 [Compound 129, 4-Methoxy-2-[5-(3-trifluoromethyl-pyridin-2-yl)-isoxazol-3-yl]-phenol] | 3.8 µM |  |
| Oc1ccc(Br)cc1-c1cc(-c2ccccn2)on1 [Compound 130, 4-Bromo-2-(5-pyridin-2-yl-isoxazol-3-yl)-phenol] | 11 µM |  |
| Cc1cccnc1-c1cc(-c2cc(Br)ccc2O)no1 [Compound 131, 4-Bromo-2-[5-(3-methyl-pyridin-2-yl)-isoxazol-3-yl]-phenol] | 4.5 µM |  |
| COc1ccc(O)c(-c2cc(-c3ncccc3C)on2)c1 [Compound 132, 4-Methoxy-2-[5-(3-methyl-pyridin-2-yl)-isoxazol-3-yl]-phenol] | 2 µM |  |
| Oc1ccccc1-c1nc(-c2ccccn2)no1 [Compound 133, 2-(3-Pyridin-2-yl-[1,2,4]oxadiazol-5-yl)-phenol] | > 19 µM |  |
| Oc1ccc2ccccc2c1-c1nc(-c2ccccn2)no1 [Compound 134, 1-(3-Pyridin-2-yl-[1,2,4]oxadiazol-5-yl)-naphthalen-2-ol] | 17 µM |  |
| Oc1ccc2ccccc2c1-c1nc(-c2ccccc2)no1 [Compound 135, 1-(3-Phenyl-[1,2,4]oxadiazol-5-yl)-naphthalen-2-ol] | > 32 µM |  |
| Oc1ccc2ccccc2c1-c1nc(-c2cc(C(F)(F)F)ccc2F)no1 [Compound 136, 1-[3-(2-Fluoro-5-trifluoromethyl-phenyl)-[1,2,4]oxadiazol-5-yl]-naphthalen-2-ol] | > 32 µM |  |
| O=[N+]([O-])c1cccnc1-c1noc(-c2c(O)ccc3ccccc23)n1 [Compound 137, 1-[3-(3-Nitro-pyridin-2-yl)-[1,2,4]oxadiazol-5-yl]-naphthalen-2-ol] | 1.8 µM |  |
| COc1cccc(-c2nc(-c3ncccc3C(F)(F)F)no2)c1 [Compound 138, 2-[5-(3-Methoxy-phenyl)-[1,2,4]oxadiazol-3-yl]-3-trifluoromethyl-pyridine] | > 19 µM |  |
| COc1cccc(-c2nc(-c3ccccn3)no2)c1 [Compound 139, 2-[5-(3-Methoxy-phenyl)-[1,2,4]oxadiazol-3-yl]-pyridine] | 18 µM |  |
| c1ccc(-c2noc(-c3cccc4ccccc34)n2)nc1 [Compound 140, 2-(5-Naphthalen-1-yl-[1,2,4]oxadiazol-3-yl)-pyridine] | 7.1 µM |  |
| O=[N+]([O-])c1ccc(-c2nc(-c3ccccn3)no2)c(Cl)c1 [Compound 141, 2-[5-(2-Chloro-4-nitro-phenyl)-[1,2,4]oxadiazol-3-yl]-pyridine] | 10 µM |  |
| COc1ccc(OC)c(-c2nc(-c3ccccn3)no2)c1 [Compound 142, 2-[5-(2,5-Dimethoxy-phenyl)-[1,2,4]oxadiazol-3-yl]-pyridine] | 20 µM |  |
| COc1ccc2ccccc2c1-c1nc(-c2ccccn2)no1 [Compound 143, 2-[5-(2-Methoxy-naphthalen-1-yl)-[1,2,4]oxadiazol-3-yl]-pyridine] | 13 µM |  |
| Oc1ccc(Br)cc1-c1nc(-c2ccccn2)no1 [Compound 144, 4-Bromo-2-(3-pyridin-2-yl-[1,2,4]oxadiazol-5-yl)-phenol] | 3.7 µM |  |

| Structure (SMILES) | EC50 [1] | EC50 |
| --- | --- | --- |
| Oc1ccc(Cl)cc1-c1nc(-c2ccccn2)no1 [Compound 145, 4-Chloro-2-(3-pyridin-2-yl-[1,2,4]oxadiazol-5-yl)-phenol] | 2.3 µM |  |
| O=[N+]([O-])c1ccc(O)c(-c2nc(-c3ccccn3)no2)c1 [Compound 146, 4-Nitro-2-(3-pyridin-2-yl-[1,2,4]oxadiazol-5-yl)-phenol] | > 32 µM |  |
| COc1ccc(O)c(-c2nc(-c3ccccn3)no2)c1 [Compound 147, 4-Methoxy-2-(3-pyridin-2-yl-[1,2,4]oxadiazol-5-yl)-phenol] | 4.4 µM |  |
| O=[N+]([O-])c1cccc(-c2nc(-c3ccccn3)no2)c1 [Compound 148, 2-[5-(3-Nitro-phenyl)-[1,2,4]oxadiazol-3-yl]-pyridine] | > 19 µM |  |
| O=[N+]([O-])c1ccc(F)c(-c2nc(-c3ccccn3)no2)c1 [Compound 149] | 4.1 µM |  |
| Oc1ccc(O)c(-c2nc(-c3ccccn3)no2)c1 [Compound 150, 2-(3-Pyridin-2-yl-[1,2,4]oxadiazol-5-yl)-benzene-1,4-diol] | 16 µM |  |
| COc1cccc(-c2nc(-c3ccccn3)no2)c1O [Compound 151, 2-Methoxy-6-(3-pyridin-2-yl-[1,2,4]oxadiazol-5-yl)-phenol] | 18 µM |  |
| COc1ccc(-c2nc(-c3ccccn3)no2)c(O)c1 [Compound 152, 5-Methoxy-2-(3-pyridin-2-yl-[1,2,4]oxadiazol-5-yl)-phenol] | 5.6 µM |  |
| FC(F)(F)c1cccnc1-c1noc(-c2cccc3ccccc23)n1 [Compound 153, 2-(5-Naphthalen-1-yl-[1,2,4]oxadiazol-3-yl)-3-trifluoromethyl-pyridine] | 7.9 µM |  |
| O=[N+]([O-])c1cccnc1-c1noc(-c2cc(Cl)ccc2O)n1 [Compound 154, 4-Chloro-2-[3-(3-nitro-pyridin-2-yl)-[1,2,4]oxadiazol-5-yl]-phenol] | > 19 µM |  |
| O=[N+]([O-])c1cccnc1-c1noc(-c2cc(Br)ccc2O)n1 [Compound 155, 4-Bromo-2-[3-(3-nitro-pyridin-2-yl)-[1,2,4]oxadiazol-5-yl]-phenol] | > 19 µM |  |
| O=[N+]([O-])c1cccc(-c2nc(-c3ncccc3[N+](=O)[O-])no2)c1 [Compound 156, 3-Nitro-2-[5-(3-nitro-phenyl)-[1,2,4]oxadiazol-3-yl]-pyridine] |  | > 19 µM |
| O=[N+]([O-])c1cccnc1-c1noc(-c2cccc3ccccc23)n1 [Compound 157, 2-(5-Naphthalen-1-yl-[1,2,4]oxadiazol-3-yl)-3-nitro-pyridine] | 4.7 µM |  |
| O=[N+]([O-])c1ccc(O)c(-c2nc(-c3ncccc3[N+](=O)[O-])no2)c1 [Compound 158, 4-Nitro-2-[3-(3-nitro-pyridin-2-yl)-[1,2,4]oxadiazol-5-yl]-phenol] |  | 11 µM |
| COc1ccc(OC)c(-c2nc(-c3ncccc3[N+](=O)[O-])no2)c1 [Compound 159] | 16 µM |  |
| COc1ccc(O)c(-c2nc(-c3ncccc3[N+](=O)[O-])no2)c1 [Compound 160, 4-Methoxy-2-[3-(3-nitro-pyridin-2-yl)-[1,2,4]oxadiazol-5-yl]-phenol] | > 19 µM |  |
| O=[N+]([O-])c1cccnc1-c1noc(-c2ccccc2O)n1 [Compound 161, 2-[3-(3-Nitro-pyridin-2-yl)-[1,2,4]oxadiazol-5-yl]-phenol] | > 19 µM |  |
| O=[N+]([O-])c1cccnc1-c1noc(-c2cc(F)ccc2O)n1 [Compound 162, 4-Fluoro-2-[3-(3-nitro-pyridin-2-yl)-[1,2,4]oxadiazol-5-yl]-phenol] | 17 µM |  |
| CN(C)c1ccc(-c2nc(-c3ccccn3)no2)c(O)c1 [Compound 163, 5-Dimethylamino-2-(3-pyridin-2-yl-[1,2,4]oxadiazol-5-yl)-phenol] | 1.5 µM |  |
